How the values were obtained:
Assay in all cases: NCI-60 single-dose screen
Assay type in all cases: cell-based
[1] = test system: A498; settings: Homo sapiens; A498, 10^–5 M; read-out: GI (%)
Outline: (§1)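 Testing used one compound level, 10^−5 M, on the NCI human cancer cell line panel (60 lines; leukemia through breast).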

[2] = test system: A549/ATCC; settings: Homo sapiens, 10^–5 M, read-out: GI (%)
Outline: as §1

[3] = test system: ACHN; settings: Homo sapiens, 10^–5 M, read-out: GI (%)
Outline: as §1

[4] = test system: CAKI-1; settings: Homo sapiens; CAKI-1, 10^–5 M; read-out: GI (%)
Outline: as §1

[5] = test system: COLO205; settings: Homo sapiens, COLO 205; COLO205, 10^–5 M; read-out: GI (%)
Outline: as §1

[6] = test system: DU-145; settings: Homo sapiens; DU-145, 10^–5 M; read-out: GI (%)
Outline: as §1

[7] = test system: HCT-116; settings: Homo sapiens; HCT-116, 10^–5 M; read-out: GI (%)
Outline: as §1

[8] = test system: HL-60(TB); settings: Homo sapiens, 10^–5 M, read-out: GI (%)
Outline: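 Each compound is applied at 10^−5 M to human tumor lines of the NCI-60 panel, which spans nine cancer types including melanoma, renal, CNS and ovarian.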

[9] = test system: HS 578T; settings: Homo sapiens, 10^–5 M, read-out: GI (%)
Outline: as §1

[10] = test system: HT-29; settings: Homo sapiens; HT-29, 10^–5 M; read-out: GI (%)
Outline: as §1

[11] = test system: IGROV1; settings: Homo sapiens, IGROV-1; IGROV1, 10^–5 M; read-out: GI (%)
Outline: as §1

[12] = test system: K-562; settings: Homo sapiens, K562; K-562, 10^–5 M; read-out: GI (%)
Outline: as §1

[13] = test system: KM12; settings: Homo sapiens; KM12, 10^–5 M; read-out: GI (%)
Outline: as §1

[14] = test system: LOX IMVI; settings: Homo sapiens, 10^–5 M, read-out: GI (%)
Outline: as §1

[15] = test system: M14; settings: Homo sapiens; M14, 10^–5 M; read-out: GI (%)
Outline: as §1

[16] = test system: MALME-3M; settings: Homo sapiens, 10^–5 M, read-out: GI (%)
Outline: as §1

[17] = test system: MCF7; settings: Homo sapiens; MCF7, 10^–5 M; read-out: GI (%)
Outline: as §1

[18] = test system: MDA-MB-231/ATCC; settings: Homo sapiens, 10^–5 M, read-out: GI (%)
Outline: as §1

[19] = test system: MDA-MB-435; settings: Homo sapiens; MDA-MB-435, 10^–5 M; read-out: GI (%)
Outline: as §1

[20] = test system: NCI-H23; settings: Homo sapiens; NCI-H23, 10^–5 M; read-out: GI (%)
Outline: as §1

[21] = test system: NCI-H322M; settings: Homo sapiens, 10^–5 M, read-out: GI (%)
Outline: as §1

[22] = test system: NCI-H522; settings: Homo sapiens; NCI-H522, 10^–5 M; read-out: GI (%)
Outline: as §1

[23] = test system: NCI/ADR-RES; settings: Homo sapiens, 10^–5 M, read-out: GI (%)
Outline: as §1

[24] = test system: OVCAR-3; settings: Homo sapiens; OVCAR-3, 10^–5 M; read-out: GI (%)
Outline: as §1

[25] = test system: OVCAR-4; settings: Homo sapiens; OVCAR-4, 10^–5 M; read-out: GI (%)
Outline: as §1

[26] = test system: OVCAR-5; settings: Homo sapiens; OVCAR-5, 10^–5 M; read-out: GI (%)
Outline: as §1

[27] = test system: PC-3; settings: Homo sapiens, PC-3, PC-3, 10^–5 M; read-out: GI (%)
Outline: as §1

[28] = test system: RPMI-8226; settings: Homo sapiens; RPMI-8226, 10^–5 M; read-out: GI (%)
Outline: as §1

[29] = test system: SF-539; settings: Homo sapiens; SF-539, 10^–5 M; read-out: GI (%)
Outline: as §1

[30] = test system: SK-MEL-28; settings: Homo sapiens; SK-MEL-28, 10^–5 M; read-out: GI (%)
Outline: as §1

[31] = test system: SK-MEL-5; settings: Homo sapiens; SK-MEL-5, 10^–5 M; read-out: GI (%)
Outline: as §1

[32] = test system: SK-OV-3; settings: Homo sapiens; SK-OV-3, 10^–5 M; read-out: GI (%)
Outline: as §1

[33] = test system: SN12C; settings: Homo sapiens, 10^–5 M, read-out: GI (%)
Outline: as §1

[34] = test system: SNB-19; settings: Homo sapiens; SNB-19, 10^–5 M; read-out: GI (%)
Outline: as §1

[35] = test system: SNB-75; settings: Homo sapiens; SNB-75, 10^–5 M; read-out: GI (%)
Outline: as §1

[36] = test system: SR; settings: Homo sapiens, 10^–5 M, read-out: GI (%)
Outline: as §1

[37] = test system: T-47D; settings: Homo sapiens, T47D, 10^–5 M, read-out: GI (%)
Outline: as §1

[38] = test system: TK-10; settings: Homo sapiens; TK-10, 10^–5 M; read-out: GI (%)
Outline: as §1

[39] = test system: UACC-257; settings: Homo sapiens; UACC-257, 10^–5 M; read-out: GI (%)
Outline: as §1

`COc1ccc(C2C=C(Nc3ccc(I)cc3)C(=O)N2c2ccc(I)cc2)cc1OC` (stereo not drawn) [3j] was tested, and the inhibition at 10 µM [1] was 0%, the inhibition at 10 µM [2] was 5% and the inhibition at 10 µM [3] was 0%. For the same compound, the inhibition at 10 µM [4] was 5%, the inhibition at 10 µM [5] was 9% and the inhibition at 10 µM [6] was 0%. The inhibition at 10 µM [7] was 0%, the inhibition at 10 µM [8] was 0% and the inhibition at 10 µM [9] was 0%. The inhibition at 10 µM [10] was 0%, the inhibition at 10 µM [11] was 0% and the inhibition at 10 µM [12] was 0%. It also gave an inhibition at 10 µM [13] of 0%, an inhibition at 10 µM [14] of 8% and an inhibition at 10 µM [15] of 0%. It also gave an inhibition at 10 µM [16] of 0%, an inhibition at 10 µM [17] of 6% and an inhibition at 10 µM [18] of 0%. For the same compound, the inhibition at 10 µM [19] was 0%, the inhibition at 10 µM [20] was 8% and the inhibition at 10 µM [21] was 0%. For the same compound, the inhibition at 10 µM [22] was 0%, the inhibition at 10 µM [23] was 0% and the inhibition at 10 µM [24] was 0%. For the same compound, the inhibition at 10 µM [25] was 0%, the inhibition at 10 µM [26] was 0% and the inhibition at 10 µM [27] was 0%. It also gave an inhibition at 10 µM [28] of 7%, an inhibition at 10 µM [29] of 28% and an inhibition at 10 µM [30] of 0%. For the same compound, the inhibition at 10 µM [31] was 11%, the inhibition at 10 µM [32] was 0% and the inhibition at 10 µM [33] was 0%. It also gave an inhibition at 10 µM [34] of 0%, an inhibition at 10 µM [35] of 0% and an inhibition at 10 µM [36] of 0%. The inhibition at 10 µM [37] was 6%, the inhibition at 10 µM [38] was 0% and the inhibition at 10 µM [39] was 0%.

Work on `N#Cc1ccc(C2C=C(Nc3ccc(I)cc3)C(=O)N2c2ccc(I)cc2)cc1` (stereo not drawn) [3l] yielded an inhibition at 10 µM [1] of 88%, an inhibition at 10 µM [2] of 31% and an inhibition at 10 µM [3] of 100%. The inhibition at 10 µM [4] was 62%, the inhibition at 10 µM [5] was 46% and the inhibition at 10 µM [6] was 37%. The inhibition at 10 µM [7] was 48%, the inhibition at 10 µM [8] was 0% and the inhibition at 10 µM [9] was 100%. It also gave an inhibition at 10 µM [10] of 40%, an inhibition at 10 µM [11] of 54% and an inhibition at 10 µM [12] of 14%. The inhibition at 10 µM [13] was 52%, the inhibition at 10 µM [14] was 89% and the inhibition at 10 µM [15] was 63%. It also gave an inhibition at 10 µM [16] of 46%, an inhibition at 10 µM [17] of 52% and an inhibition at 10 µM [18] of 100%. The inhibition at 10 µM [19] was 19%, the inhibition at 10 µM [20] was 36% and the inhibition at 10 µM [21] was 51%. The inhibition at 10 µM [22] was 32%, the inhibition at 10 µM [23] was 37% and the inhibition at 10 µM [24] was 60%. For the same compound, the inhibition at 10 µM [25] was 100%, the inhibition at 10 µM [26] was 11% and the inhibition at 10 µM [27] was 45%. For the same compound, the inhibition at 10 µM [28] was 83%, the inhibition at 10 µM [29] was 35% and the inhibition at 10 µM [30] was 29%. The inhibition at 10 µM [31] was 24%, the inhibition at 10 µM [32] was 75% and the inhibition at 10 µM [33] was 59%. For the same compound, the inhibition at 10 µM [34] was 35%, the inhibition at 10 µM [35] was 100% and the inhibition at 10 µM [36] was 87%. For the same compound, the inhibition at 10 µM [37] was 59%, the inhibition at 10 µM [38] was 99% and the inhibition at 10 µM [39] was 21%.

— PMC12736255, “Reinvestigating Pyrrol-2-One-Based Compounds: From Antimicrobial Agents to Promising Antitumor Candidates” (Pharmaceuticals, 2025)
